Reference: patent US10829778B2, “Plants having increased tolerance to herbicides” (BASF SE, priority 2013, dated 2020)

Columns and labels:
[1] = tested on: Arabidopsis wild-type control plants; assay: Arabidopsis germination/growth inhibition assay in 48-well plates; type: in vivo, Arabidopsis thaliana; details: plant growth IC50 relative to wildtype
Procedure: (§1) Tolerance to N-heterocyclyl-arylcarboxamides can also be assessed in Arabidopsis. In this case transgenic Arabidopsis thaliana plants are assayed for improved tolerance to N-heterocyclyl-arylcarboxamides in 48-well plates. Seeds are surface sterilized by stirring for 5 min in ethanol+water (70+30 by volume), rinsing one time with ethanol+water (70+30 by volume) and two times with a sterile, deionized water. The seeds are resuspended in 0.1% agar dissolved in water (w/v). Four to five seeds per well are plated on solid nutrient medium consisting of half-strength Murashige Skoog nutrient solution, pH 5.8 (Murashige and Skoog (1962) Physiologia Plantarum 15: 473-497). Compounds are dissolved in dimethylsulfoxid (DMSO) and added to the medium prior solidification (final DMSO concentration 0.1%). Multi well plates are incubated in a growth chamber at 22° C., 75% relative humidity and 110 μmol Phot*m-2*s-1 with 14:10 h light: dark photoperiod. Seven to ten days after seeding growth inhibition is evaluated by comparison to wild type plants. Tolerance factor is calculated by dividing the plant growth IC50 value of transgenic plants containing a HPPD and/or HST sequence by that of wildtype plants.

[2] = tested on: transgenic Arabidopsis plants overexpressing HPPD (Seq ID: 53); assay: as above; type: in vivo, Arabidopsis thaliana; details: plant growth IC50 of transgenic divided by wildtype; HPPD (Seq ID: 53) overexpression
Procedure: as §1

[3] = target: T1, Hordeum HPPD (SEQ ID NO:2) (Hordeum vulgare, UniProt O48604, A164G/R146V/R147D/R148G); assay: HPPD activity assay (HGA by HPLC), wildtype enzyme; type: biochemical; details: Hordeum enzyme
T1 construct: subcloned into a modified pET24D (Novagen) expression vector resulting in N-terminally His-tagged expression constructs; His tag (N); made in house; host or cells: E. coli BL21 (DE3)
T1 sequence (O48604 whole entry R146V/R147D/R148G/A164G): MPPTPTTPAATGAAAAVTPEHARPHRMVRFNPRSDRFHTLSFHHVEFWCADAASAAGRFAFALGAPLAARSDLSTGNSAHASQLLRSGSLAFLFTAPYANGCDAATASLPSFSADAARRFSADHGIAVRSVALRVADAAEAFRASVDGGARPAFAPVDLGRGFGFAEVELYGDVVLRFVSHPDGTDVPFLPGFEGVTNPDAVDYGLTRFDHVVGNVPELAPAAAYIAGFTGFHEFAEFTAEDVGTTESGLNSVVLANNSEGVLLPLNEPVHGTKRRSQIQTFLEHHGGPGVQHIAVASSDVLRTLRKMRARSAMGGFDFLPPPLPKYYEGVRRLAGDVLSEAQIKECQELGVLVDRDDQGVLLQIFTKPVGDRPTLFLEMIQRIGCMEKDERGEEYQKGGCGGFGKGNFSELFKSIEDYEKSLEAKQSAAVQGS
Procedure: (§2) HPPD produces homogentisic acid and CO2 from 4-hydroxyphenylpyruvate (4-HPP) and O2. The activity assay for HPPD is based on the analysis of homogentisic acid by reversed phase HPLC.
(§3) The assay mixture can contain 150 mM potassium phosphate buffer pH 7.0, 50 mM L-ascorbic acid, 100 μM Catalase (Sigma-Aldrich), 1 μM FeSO4 and 0.2 units of purified HPPD enzyme in a total volume of 505 μl. 1 unit is defined as the amount of enzyme that is required to produce 1 nmol of HGA per minute at 20° C.
(§4) After a preincubation of 30 min the reaction is started by adding 4-HPP to a final concentration of 0.05 mM. The reaction is allowed to proceed for 45 min at room temperature. The reaction is stopped by the addition of 50 μl of 4.5 M phosphoric acid. The sample is filtered using a […] pore size PVDF filtration device.
(§5) 5 μl of the cleared sample is analyzed on an UPLC HSS T3 column (particle size 1.8 μm, dimensions 2.1×50 mm; Waters) by isocratic elution using 90% 20 mM NaH2PO4 pH 2.2, 10% methanol (v/v).
(§6) HGA is detected electrochemically at 750 mV (mode: DC; polarity: positive) and quantified by integrating peak areas (Empower software; Waters).
(§7) Inhibitors are dissolved in DMSO (dimethylsulfoxide) to a concentration of 0.5 mM. From this stock solution serial five-fold dilutions are prepared in DMSO, which are used in the assay. The respective inhibitor solution accounts for 1% of the assay volume. […] Activities are normalized by setting the uninhibited enzyme activity to 100%. IC50 values are calculated using non-linear regression.
(§8) Using methods which are described in the above examples or well known in the art, purified, recombinant wildtype HPPD enzymes are characterized with respect to their kinetic properties and sensitivity towards HPPD inhibiting herbicides. Apparent michaelis constants (Km) and maximal reaction velocities (Vmax) are calculated by non-linear regression with the software GraphPad Prism 5 (GraphPad Software, La Jolla, USA) using a substrate inhibition model. […] Weighted means (by standard error) of Km and IC50 values are calculated from at least three independent experiments.
(§9) Field performance of the HPPD enzyme, which is used as a herbicide tolerance trait may depend not only on its lack of sensitivity towards HPPD inhibiting herbicides but also on its activity. To assess the potential performance of a herbicide tolerance trait a tolerance index (TI) is calculated using the following formula: […]
(§10) Easy comparison and ranking of each trait is enabled by normalizing tolerance indexes on Arabidopsis wild-type HPPD.

[4] = target: T2, Arabidopsis HPPD (SEQ ID NO:53) (Arabidopsis thaliana, UniProt P93836); assay: HPPD activity assay (HGA by HPLC), wildtype enzyme; type: biochemical; details: Arabidopsis enzyme
T2 construct: His6 (N); made in house; host or cells: E. coli BL21 (DE3)
T2 sequence (P93836 1-445): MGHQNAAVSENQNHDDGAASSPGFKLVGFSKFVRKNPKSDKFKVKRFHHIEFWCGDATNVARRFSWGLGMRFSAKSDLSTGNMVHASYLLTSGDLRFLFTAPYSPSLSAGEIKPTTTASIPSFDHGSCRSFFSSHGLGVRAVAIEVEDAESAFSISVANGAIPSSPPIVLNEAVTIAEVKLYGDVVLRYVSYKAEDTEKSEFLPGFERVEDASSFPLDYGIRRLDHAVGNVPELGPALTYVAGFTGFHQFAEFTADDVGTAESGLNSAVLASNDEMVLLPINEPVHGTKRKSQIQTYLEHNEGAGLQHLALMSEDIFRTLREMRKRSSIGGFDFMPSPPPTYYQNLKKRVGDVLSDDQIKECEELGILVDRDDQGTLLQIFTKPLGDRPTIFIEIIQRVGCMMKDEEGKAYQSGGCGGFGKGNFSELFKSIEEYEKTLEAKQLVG
Procedure: as §2, §3, §4, §5, §6, §7, §8, §9, §10

[5] = apparent michaelis constant, read-out: Km [μM] (4-HPP)

SMILES	Tolerance factor towards Inhibitor 2 [1]	Tolerance factor towards Inhibitor 2 [2]	Km [3, 5] [µM]	kcat ([3]; turnover number) [s⁻¹]	Km [4, 5] [µM]	kcat ([4]; turnover number) [s⁻¹]
COc1nonc1NC(=O)c1ccc(S(C)(=O)=O)c(S(C)(=O)=O)c1C [Inhibitor 2, N-(4-methoxy-1,2,5-oxadiazol-3-yl)-2-methyl-3,4-bis(methylsulfonyl)benzamide]	1	12	–	–	–	–
O=C(O)C(=O)Cc1ccc(O)cc1 [Inhibitor 4-HPP, 4-hydroxyphenylpyruvate, reference compound]	–	–	26	11.5	13	12.9
